Data on 53 molecules can be found in paper PMC5698418 (Nature Communications, 2017).

Where a name gives a salt, the structure may show the parent alone. Read-outs that look alike come from different tables or passages of the source.

For the test, the system named is BDNF-induced nuclear Arc expression in primary cortical neurons. The test is described as follows: Chemogenomic screen: high-content image-based assay of BDNF-induced nuclear Arc expression (96-well). The format is cell-based, mouse. Summed up: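 Nuclear Arc immunofluorescence is quantified automatically within an acetyl-H3K9-defined nuclear mask from ×40 images. Cultures are DIV13 mouse forebrain cortical neurons seeded at 30,000 per well and exposed to BDNF plus compound at a final 16.7 µM, with triplicate biological replicates.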

[1] abbreviates: nuclear Arc-positive cells relative to DMSO + BDNF control, negative values = decrease.
The mark [2] stands for this setting: chemogenomic (SMART) screen, BDNF-induced nuclear Arc expression, primary cortical neurons, BDNF control 19.5.
[3] abbreviates: BDNF-induced nuclear Arc expression, primary cortical neurons, chemogenomic screen.
Where [4] appears, read: nuclear Arc-positive cells relative to DMSO control (BDNF), negative = decrease.

Regarding `Cn1cc(C2=C(c3coc4ccccc34)C(=O)NC2=O)c2cc(Br)ccc21` [ING-135], the “Percentage of cell with nuclear Arc immunostaining above 2σ threshold” value (“Percentage of cell” for short) stood at 34.1%. In addition, the “Fold-change — Normalized to DMSO control (BDNF)” value (“Fold-change — Normalized” for short) under setting [1] is 1.7 fold. Take `Clc1ccc2nsnc2c1NC1=NCCN1` [Tizanidine]: the “Percentage of cell” value under setting [2] came to 35.8%. The “Fold-change — Normalized” value under setting [1] turned out to be 1.8 fold. For the molecule `Cc1cc(C(=O)NNCc2ccccc2)no1` [Isocarboxazid], the “Percentage of cell” value under setting [2] was determined as 21.2%. Also, under setting [1], the “Fold-change — Normalized” value is 1.1 fold. Consider `CCN(CC)CCOCCOC(=O)C1(c2ccccc2)CCCC1` [Carbetapentane], for which the “Percentage of cell” value under setting [2] amounted to 17.2%. The same measure, in the same setting: as for `CCCN[C@H]1CCc2nc(N)sc2C1` [Pramipexole], the figure is 14.5%. For the molecule `CCN[C@H]1CN(CCCOC)S(=O)(=O)c2sc(S(N)(=O)=O)cc21` [Brinzolamide], under setting [2], the “Percentage of cell” value amounted to 28.3%. Under setting [1], the “Fold-change — Normalized” value is reported as 1.5 fold. Consider `CCN(C)C(=O)Oc1cccc([C@H](C)N(C)C)c1` [Rivastigmine], for which the “Percentage of cell” value stood at 33.7%. Also, the “Fold-change — Normalized” value under setting [1] is listed as 1.7 fold.

For the molecule `COc1cc2c(NC3CCN(C4CCCCC4)CC3)nc(N3CCCN(C(C)C)CC3)nc2cc1OCCCN1CCCCC1` [UNC 0646], the “Percentage of cell” value under setting [3] is listed as 5.2%. In addition, the “Fold-change — Normalized” value under setting [4] is listed as -3.7 fold. Consider `OCCN1CCN(CCCN2c3ccccc3Sc3ccc(Cl)cc32)CC1` [Perphenazine], for which the “Percentage of cell” value under setting [3] worked out at 1.0%. Turning to `Cc1nccc2c1[nH]c1ccccc12` [Harmane], the “Percentage of cell” value is 38.8%. For the same molecule, the “Fold-change — Normalized” value under setting [1] is 2.0 fold.

Regarding `O=c1c(O)c(-c2ccc(O)c(O)c2)oc2cc(O)cc(O)c12` [Sophoretin], the “Percentage of cell” value under setting [3] was 9.3%. Turning to `CCN1CCC[C@H]1CNC(=O)c1cc(S(N)(=O)=O)ccc1OC` [Levosulpiride], the “Percentage of cell” value under setting [2] worked out at 28.2%. Besides, under setting [1], the “Fold-change — Normalized” value was 1.4 fold. In the case of `NCC1(CC(=O)O)CCCCC1` [Gabapentin], the “Percentage of cell” value is on record as 9.0%.

For `O=C(CCCN1CCC2(CC1)C(=O)NCN2c1ccccc1)c1ccc(F)cc1` [Spiperone], under setting [2], the “Percentage of cell” value is on record as 23.6%. In addition, under setting [1], the “Fold-change — Normalized” value is recorded as 1.2 fold. For `COc1ccc(-c2oc3c(CC=C(C)C)c(O[C@@H]4O[C@H](CO)[C@@H](O)[C@H](O)[C@H]4O)cc(O)c3c(=O)c2O[C@@H]2O[C@@H](C)[C@H](O)[C@@H](O)[C@H]2O)cc1` [Icariin] the same measures were 43.8% and 2.2 fold. Regarding `CCc1c(C)[nH]c2c1C(=O)C(CN1CCOCC1)CC2` (stereo not drawn) [Molindone], the “Percentage of cell” value under setting [2] was 36.4%. Under setting [1], the “Fold-change — Normalized” value came to 1.9 fold. With `CNCCCN1c2ccccc2CCc2ccccc21` [Desipramine], under setting [3], the “Percentage of cell” value was 11.3%. Regarding `CN[C@@H]1Cc2cccc3[nH]c(=O)n(c23)C1` [Sumanirole], the “Percentage of cell” value under setting [2] is listed as 40.3%. Further, the “Fold-change — Normalized” value under setting [1] is listed as 2.1 fold. Regarding `O=C(O)c1cc2cc(O)c(O)cc2c(C(=O)c2ccc(O)c(O)c2)n1` [NBI-31772], the “Percentage of cell” value is 2.7%. Also, the “Fold-change — Normalized” value under setting [4] is -7.3 fold. `CN1CC2c3ccccc3Oc3ccc(Cl)cc3C2C1` (stereo not drawn) [Asenapine]: under setting [3], the “Percentage of cell” value came out at 11.2%.

`CC[C@H](CO)Nc1nc(NCc2ccccc2)c2ncn(C(C)C)c2n1` [Roscovitine]: the “Fold-change — Normalized” value stood at 1.3 fold and the “Percentage of cell” value was 24.9%. `CC[C@@H](C(N)=O)N1CCCC1=O` [Levetiracetam]: the “Percentage of cell” value under setting [3] is 7.9%.

Consider `Clc1ccc(C23CNCC2C3)cc1Cl` (stereo not drawn) [DOV-216,303], for which the “Percentage of cell” value came to 6.5%. Further, the “Fold-change — Normalized” value under setting [4] is on record as -3.0 fold. In the case of `CC(=O)Nc1nnc(S(N)(=O)=O)s1` [Acetazolamide], under setting [3], the “Percentage of cell” value stood at 4.9%. Regarding `Clc1ccc2c(c1)C(N1CCNCC1)=Nc1ccccc1O2` [Amoxapine], under setting [2], the “Percentage of cell” value worked out at 12.9%. On to `CNCC(O)c1ccc(O)cc1` (stereo not drawn) [Synephrine], for which the “Percentage of cell” value under setting [2] was found to be 27.8%. Moreover, the “Fold-change — Normalized” value under setting [1] was found to be 1.4 fold.

As for Bromocryptine, the “Percentage of cell” value was 45.0%. Further, under setting [1], the “Fold-change — Normalized” value amounted to 2.3 fold. `OCCOCCN1CCN(C(c2ccccc2)c2ccc(Cl)cc2)CC1` (stereo not drawn) [Hydroxyzine dihydrochloride]: the “Percentage of cell” value under setting [2] is 27.2%. Further, the “Fold-change — Normalized” value under setting [1] was determined as 1.4 fold. Turning to `C[C@H](NC[C@H](O)CP(=O)(O)Cc1ccccc1)c1ccc(Cl)c(Cl)c1` [CGP 55845], the “Percentage of cell” value came out at 24.6%. In addition, the “Fold-change — Normalized” value under setting [1] came to 1.3 fold. As for `CC(NC(C)(C)C)C(=O)c1cccc(Cl)c1` (stereo not drawn) [Bupropion], the “Percentage of cell” value under setting [3] was found to be 9.0%. Consider `O=C(O)c1cccc(-c2noc(-c3ccccc3F)n2)c1` [Ataluren], for which, under setting [2], the “Percentage of cell” value is reported as 38.6%. The “Fold-change — Normalized” value under setting [1] amounted to 2.0 fold. In the case of `Cc1cccc(C)c1NC(=O)CN1CCCC1=O` [Nefiracetam], the “Percentage of cell” value under setting [2] is given as 19.7%. Moreover, under setting [1], the “Fold-change — Normalized” value came to 1.0 fold. For `CCCn1cnc2c1c(=O)n(CCCCC(C)=O)c(=O)n2C` [Propentofylline] the same measures were 33.4% and 1.7 fold. For `O=c1c(O)c(-c2ccc(O)cc2)oc2cc(O)cc(O)c12` [Kaempferol], the “Percentage of cell” value under setting [3] was 4.0%. As for `O=C1Cc2cc(CCN3CCN(c4nsc5ccccc45)CC3)c(Cl)cc2N1` [Ziprasidone], the “Percentage of cell” value under setting [3] came to 3.3%.

For `Cc1ccc(C23CNCC2C3)cc1` (stereo not drawn) [Bicifadine], under setting [3], the “Percentage of cell” value came to 7.2%. On to `COc1cc2c(NC3CCN(C)CC3)nc(N3CCCN(C)CC3)nc2cc1OCCCN(C)C` [UNC 0224], for which the “Percentage of cell” value under setting [2] was determined as 40.5%. Besides, under setting [1], the “Fold-change — Normalized” value was 2.1 fold. Regarding `COc1cccc(C2(O)CCCCC2CN(C)C)c1` (stereo not drawn) [Tramadol], the “Percentage of cell” value is reported as 7.5%. The same measure, in the same setting: next, `CNC(=O)Oc1ccc2c(c1)[C@]1(C)CCN(C)[C@@H]1N2C` [Physostigmine]: 18.3%. As for `CCC(C)C(CC)C(N)=O` (stereo not drawn) [Valnoctamide], under setting [2], the “Percentage of cell” value is listed as 24.6%. In addition, under setting [1], the “Fold-change — Normalized” value is 1.3 fold. As for `CC12CC3CC(C)(C1)CC(N)(C3)C2` [Memantine], the “Percentage of cell” value under setting [2] is reported as 17.1%. With `CCN1CCN(c2cc(-c3ccc(F)cc3)c3c(n2)CCCCCC3)CC1` [Blonanserin], the “Percentage of cell” value under setting [3] came out at 10.9%.

Consider `CCN(CC)C(=O)/C(C#N)=C/c1cc(O)c(O)c([N+](=O)[O-])c1` [Entacapone], for which, under setting [2], the “Percentage of cell” value is 27.9%. Further, under setting [1], the “Fold-change — Normalized” value is 1.4 fold. Take `CCOc1cc(CC(=O)N[C@@H](CC(C)C)c2ccccc2N2CCCCC2)ccc1C(=O)O` [Repaglinide]: the “Percentage of cell” value under setting [2] came to 19.5%. The “Fold-change — Normalized” value under setting [1] was 1.0 fold. As to `CC(C)S(=O)(=O)N[C@H]1CCOC[C@@H]1c1ccc(-c2ccc(C#N)s2)cc1` [PF 4778574], the “Percentage of cell” value is listed as 35.9%. Further, the “Fold-change — Normalized” value under setting [1] stood at 1.8 fold. For `COc1ccc(C(=O)N2CCCC2=O)cc1` [Aniracetam], under setting [3], the “Percentage of cell” value turned out to be 8.2%. Consider `COc1ccccc1C1(O)CCN(CCCn2c3ccccc3c3ccccc32)CC1` [NNC 05-2090], for which the “Percentage of cell” value came to 0.0%. For the same molecule, under setting [4], the “Fold-change — Normalized” value is listed as 0.0 fold. In the case of `CC#C[C@]1(O)CC[C@H]2[C@@H]3CCC4=CC(=O)CCC4=C3[C@@H](c3ccc(N(C)C)cc3)C[C@@]21C` [Mifepristone], the “Percentage of cell” value under setting [2] was 43.7%. For the same molecule, the “Fold-change — Normalized” value under setting [1] was 2.2 fold. On to `CC(C)c1c(CN(C)C(C)Cc2ccccc2)n(C)n(-c2ccccc2)c1=O` (stereo not drawn) [Famprofazone], for which the “Percentage of cell” value turned out to be 18.1%. For `Cc1cc2c(s1)Nc1ccccc1N=C2N1CCN(C)CC1` [Olanzapine], the “Percentage of cell” value is recorded as 19.4%. In the case of `COc1ccc2c(c1)[C@]13CCCC[C@@H]1[C@H](C2)N(C)CC3` [Dextromethorphan], the “Percentage of cell” value under setting [2] stood at 19.7%. Also, under setting [1], the “Fold-change — Normalized” value is recorded as 1.0 fold. In the case of `CCN(CC)C(=O)C1(c2ccccc2)CC1CN` (stereo not drawn) [Milnacipran], the “Percentage of cell” value under setting [2] amounted to 13.2%. On to `COc1ccc(CN(CCN(C)C)c2ccccn2)cc1` [Pyrilamine maleate], for which the “Percentage of cell” value under setting [2] is recorded as 25.2%. Moreover, the “Fold-change — Normalized” value under setting [1] is listed as 1.3 fold.
